Assays:
ATM kinase = ATM kinase (Homo sapiens, UniProt Q13315); conditions: Durant et al. Sci Adv 2018; cited from earlier work
[1] = tested on: pro-inflammatory cytokine genes involved in cellular innate immunity; assay: Q-RT-PCR of cytokine mRNA in wild type 4T1 cells treated with ATM inhibitors; type: cell-based, mouse; conditions: FIG. 10
Description: (§1) Total RNA was extracted from cells by use of RNeasy Mini Kit (Qiagen) according to manufacturer's instructions. RNA was subjected to cDNA synthesis with random hexamer primers using Superscript II reverse transcriptase (Invitrogen). Quantitative real-time PCR was performed using Quanti Test SYBR Green PCR Master Mix Kit (Qiagen). Primers used for different target genes are listed in the Sequences section herein.

glioma = conditions: preclinical models; Durant et al. Sci Adv 2018; cited from earlier work
cGAS-STING = assay: Ethidium bromide mtDNA depletion, cGAS-STING activation in B16F10 cells; type: cell-based, mouse; conditions: wild-type B16F10, 100 ng/ml ethidium bromide 20 days, then 1 μM AZD1390 48 hr; FIG. 103
Description: (§2) Cells lysates were boiled in sodium dodecyl sulfate (SDS) sample loading buffer, resolved by 10% SDS-polyacrylamide gel electrophoresis (SDS-PAGE) and transferred to nitrocellulose. The membranes were blocked in 5% milk in Tris-buffered saline and Tween 20 (TBST; 10 mM Tris-HCl [pH 8.0], 150 mM NaCl, 0.1% Tween 20) for 1 hr at room temperature. After washing twice with TBST, the membranes were incubated with appropriate primary antibodies in BSA/TBST for overnight and then washed three times with TBST, probed with horseradish […] anti-immunoglobulin (1:5000 dilution) for 1 hr at room temperature. After three washes with TBST, immunoreacted products were visualized using enhanced chemiluminescence reagent and autoradiography.
A previously published protocol was used (White, M. J. et al. Cell (2014) doi:10.1016/j.cell1.2014.11.036). Vector control, ATM KO and wild-type B16 cells were cultured in Dulbecco's modified Eagle's medium (DMEM) with 10% FBS. About 100 ng/ml ethidium bromide was added to the medium for 20 days before the cells were harvested for experiments.
Total RNA was extracted from cells by use of RNeasy Mini Kit (Qiagen) according to manufacturer's instructions. […] Quantitative real-time PCR was performed using Quanti Test SYBR Green PCR Master Mix Kit (Qiagen). […]

ISGs = assay: qRT-PCR of ISGs in B16F10 cells; type: cell-based, mouse
Description: as §1

p-TBK [2] = assay: Western blot of p-TBK in B16 cells; type: cell-based, mouse
Description: as §2

B16F10 melanoma = assay: Tumor growth delay and survival, B16F10 melanoma in C57BL/6 mice; type: in vivo, mouse
Description: (§3) All animal experiments conducted in this study were approved by Duke University Institutional Animal Use and Care Committee. C57BL/6J and Balb/C, mice were purchased from The Jackson Laboratory. NSG mice were purchased from Division of Laboratory Animal Resources (DLAR) of Duke University. Prior to tumor cell injection, age-matched 6-8 weeks old mice were shaved at one of the flanks. Tumor cells were then injected into shaved flanks subcutaneously with Lenti-CRISPRv2 modified control or target gene-specific knockout tumor cells. Tumor volumes were measured every 2-3 days and calculated by the formula: […]. The mice were sacrificed when tumors reached 2000 mm^3.
(§4) For antibody treatments, mice were given 100 μg antibody via intraperitoneal (i.p.) injection at day 6, 9, 12 post tumor cells injection using following antibodies: anti-PD1 (clone 29F.1A12) or isotype (clone 2A3) from BioXCell.

[3] = tested on: mitochondrial DNA (mtDNA) release; assay: Q-PCR of mtDNA in digitonin cytosolic extracts of B16F10 cells; type: cell-based, mouse; conditions: 1 μM AZD1390 for 48 hours, FIGS. 59, 60
4T1 tumor = assay: Tumor growth delay and survival, 4T1 tumors in Balb/c mice; type: in vivo; conditions: 4T1, Balb/c; anti-PD1 100 μg/mouse days 6, 9, 12 or AZD1390 10 mg/kg daily days 4-14; FIGS. 27, 28
Description: as §3, §4

p-TBK [4] = assay: Western blot of p-TBK in MDA-MB-231 cells; type: cell-based; conditions: human MDA-MB-231 cells, Ku55933 for 6 hours; FIG. 91
Description: as §2

Chain of ATM kinase (Q13315 whole entry): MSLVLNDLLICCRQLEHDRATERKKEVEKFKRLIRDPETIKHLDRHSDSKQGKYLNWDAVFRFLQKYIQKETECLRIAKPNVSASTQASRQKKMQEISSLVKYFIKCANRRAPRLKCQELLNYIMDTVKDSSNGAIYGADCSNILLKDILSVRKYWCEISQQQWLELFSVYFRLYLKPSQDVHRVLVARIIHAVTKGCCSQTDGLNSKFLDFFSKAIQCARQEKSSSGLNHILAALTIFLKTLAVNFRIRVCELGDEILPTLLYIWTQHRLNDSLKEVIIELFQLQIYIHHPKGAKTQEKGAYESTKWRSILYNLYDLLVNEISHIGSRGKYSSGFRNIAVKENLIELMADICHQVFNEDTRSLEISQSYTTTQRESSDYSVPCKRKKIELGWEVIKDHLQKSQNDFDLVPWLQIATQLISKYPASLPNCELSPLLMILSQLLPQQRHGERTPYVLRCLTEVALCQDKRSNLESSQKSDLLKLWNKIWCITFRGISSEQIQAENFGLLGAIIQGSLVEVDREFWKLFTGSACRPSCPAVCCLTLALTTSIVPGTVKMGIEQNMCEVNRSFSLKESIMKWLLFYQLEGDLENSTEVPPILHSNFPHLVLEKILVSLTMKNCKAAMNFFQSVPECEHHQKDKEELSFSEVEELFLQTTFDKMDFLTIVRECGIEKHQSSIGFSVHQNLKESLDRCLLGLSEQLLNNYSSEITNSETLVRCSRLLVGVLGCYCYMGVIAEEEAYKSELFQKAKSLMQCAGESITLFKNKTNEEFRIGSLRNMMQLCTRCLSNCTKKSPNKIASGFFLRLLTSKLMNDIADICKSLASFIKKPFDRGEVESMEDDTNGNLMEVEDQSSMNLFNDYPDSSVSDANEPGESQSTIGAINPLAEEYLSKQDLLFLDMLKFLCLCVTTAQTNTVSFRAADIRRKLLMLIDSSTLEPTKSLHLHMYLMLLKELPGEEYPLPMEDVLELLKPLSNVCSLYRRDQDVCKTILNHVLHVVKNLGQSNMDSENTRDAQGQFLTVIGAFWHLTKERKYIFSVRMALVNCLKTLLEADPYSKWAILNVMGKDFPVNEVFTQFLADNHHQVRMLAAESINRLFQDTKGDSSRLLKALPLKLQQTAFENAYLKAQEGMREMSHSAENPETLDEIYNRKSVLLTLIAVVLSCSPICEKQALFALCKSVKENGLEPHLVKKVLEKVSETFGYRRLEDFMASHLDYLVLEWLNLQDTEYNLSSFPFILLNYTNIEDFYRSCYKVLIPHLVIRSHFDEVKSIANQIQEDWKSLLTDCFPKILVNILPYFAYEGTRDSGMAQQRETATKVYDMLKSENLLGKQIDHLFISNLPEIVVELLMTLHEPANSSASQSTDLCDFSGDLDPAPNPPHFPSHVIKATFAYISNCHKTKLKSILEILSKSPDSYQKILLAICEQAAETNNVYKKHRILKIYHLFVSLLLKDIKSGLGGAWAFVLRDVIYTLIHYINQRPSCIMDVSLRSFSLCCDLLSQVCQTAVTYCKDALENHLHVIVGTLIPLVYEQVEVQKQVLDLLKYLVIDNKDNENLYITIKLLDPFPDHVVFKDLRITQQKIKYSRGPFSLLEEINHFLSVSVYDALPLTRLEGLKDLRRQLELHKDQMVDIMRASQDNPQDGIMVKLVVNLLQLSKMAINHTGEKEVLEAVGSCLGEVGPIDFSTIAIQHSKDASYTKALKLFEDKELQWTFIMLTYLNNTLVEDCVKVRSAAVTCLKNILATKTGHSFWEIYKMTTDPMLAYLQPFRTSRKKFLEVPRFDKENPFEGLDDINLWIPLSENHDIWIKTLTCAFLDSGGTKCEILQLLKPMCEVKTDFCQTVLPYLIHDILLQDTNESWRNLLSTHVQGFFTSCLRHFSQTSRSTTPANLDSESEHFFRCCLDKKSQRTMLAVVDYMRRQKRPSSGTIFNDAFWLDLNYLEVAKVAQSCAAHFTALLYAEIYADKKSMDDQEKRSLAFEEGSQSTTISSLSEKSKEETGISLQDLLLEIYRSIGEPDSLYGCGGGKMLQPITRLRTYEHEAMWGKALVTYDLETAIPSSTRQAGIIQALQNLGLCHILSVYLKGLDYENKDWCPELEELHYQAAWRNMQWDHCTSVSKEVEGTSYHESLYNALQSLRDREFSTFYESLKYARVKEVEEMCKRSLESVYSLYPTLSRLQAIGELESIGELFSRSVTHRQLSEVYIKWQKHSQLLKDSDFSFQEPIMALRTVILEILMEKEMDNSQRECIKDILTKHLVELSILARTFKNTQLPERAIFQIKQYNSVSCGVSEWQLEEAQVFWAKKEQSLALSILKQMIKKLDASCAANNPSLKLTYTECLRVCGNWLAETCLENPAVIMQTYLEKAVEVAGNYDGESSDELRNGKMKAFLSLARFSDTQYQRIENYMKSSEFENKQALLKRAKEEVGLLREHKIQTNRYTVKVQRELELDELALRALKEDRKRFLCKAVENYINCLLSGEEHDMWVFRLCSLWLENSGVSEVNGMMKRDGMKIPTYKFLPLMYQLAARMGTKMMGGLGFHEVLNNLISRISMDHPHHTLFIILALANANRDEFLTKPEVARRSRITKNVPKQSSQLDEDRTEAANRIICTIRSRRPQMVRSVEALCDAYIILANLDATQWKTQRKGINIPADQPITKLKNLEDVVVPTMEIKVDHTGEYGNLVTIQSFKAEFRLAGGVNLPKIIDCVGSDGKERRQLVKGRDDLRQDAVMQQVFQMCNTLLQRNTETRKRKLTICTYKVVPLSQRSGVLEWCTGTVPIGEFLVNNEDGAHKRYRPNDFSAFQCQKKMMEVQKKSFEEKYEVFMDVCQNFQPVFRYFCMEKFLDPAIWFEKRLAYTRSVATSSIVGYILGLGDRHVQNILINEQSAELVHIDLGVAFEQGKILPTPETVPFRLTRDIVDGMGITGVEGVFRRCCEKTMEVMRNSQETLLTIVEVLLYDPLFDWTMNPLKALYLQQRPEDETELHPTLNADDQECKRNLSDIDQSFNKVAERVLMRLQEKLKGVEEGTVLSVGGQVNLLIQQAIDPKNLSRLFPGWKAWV

| SMILES | ATM kinase inhibitor character (ATM kinase) | pro-inflammatory cytokine gene expression [1] | enhancement of radiotherapy of glioma (glioma) | cGAS-STING activation (pTBK) induced by AZD1390 after EtBr-induced depletion of mtDNA (cGAS-STING) | expression of ISGs (ISGs; 1 μM AZD1390 for 48 hrs, FIG. 46) | phosphorylation of TBK (p-TBK [2]; AZD1390 at indicated concentrations for 48 hrs, FIG. 45) | enhancement of anti-tumor efficacy of the anti-PD1 antibody (B16F10 melanoma; B16F10, C57BL/6, AZD1390 10 mg/kg daily days 4-14 plus anti-PD1 100 μg/mouse days 6, 9, 12, FIGS. 25, 26) | enhancement of tumor suppression mediated by an anti-PD1 antibody (B16F10 melanoma; B16F10 melanoma, anti-PD1 100 μg/mouse and AZD1390 2.5 mg/Kg, FIG. 11) | effect on tumor growth, single agent (B16F10 melanoma; B16F10 tumors, C57BL/6, AZD1390 alone 10 mg/kg daily days 4-14, FIG. 25) | mitochondrial DNA (mtDNA) release [3] | effect on tumor growth, single agent (4T1 tumor) | expression of p-TBK (p-TBK [4]) | expression of ISGs (ISGs; 10 μM Ku55933 for 9 hours (IFIT1, CCL5), FIG. 90) | phosphorylation of TBK (p-TBK [2]; Ku55933 indicated concentrations 6 hours, or 5 μM at indicated times, FIGS. 88, 89) |
| --- | --- | --- | --- | --- | --- | --- | --- | --- | --- | --- | --- | --- | --- | --- |
| CC(C)n1c(=O)n(C)c2cnc3cc(F)c(-c4ccc(OCCCN5CCCCC5)nc4)cc3c21 [AZD1390] | potent and selective | induce the pro-inflammatory cytokine genes | significantly enhanced radiotherapy of glioma | abrogated | induced expression of ISGs | induced increased phosphorylation of TBK | significantly enhanced | significantly enhanced tumor suppression | almost negligible effect | induced mitochondrial DNA (mtDNA) release | more significant tumor-suppressive effect |  |  |  |
| O=c1cc(-c2cccc3c2Sc2ccccc2S3)oc(N2CCOCC2)c1 [Ku55933] |  | induce the pro-inflammatory cytokine genes |  |  |  |  |  |  |  |  |  | induced expression of p-TBK | induced expression of ISGs | induced increased phosphorylation of TBK |
